The results in this text go back to patent publication US20240116877A1, “KIT KINASE INHIBITORS AND METHODS OF USE THEREOF” (Deciphera Pharmaceuticals, LLC, priority 2021, published 2024).

pIC50: −log10 of the molar value. Like-named read-outs stand apart in the source and are kept apart here.

One assay deals with c-KIT kinase (uKIT) (Homo sapiens (Human), UniProt P10721). The experiment in a line: Biochemical Assay for uKIT (coupled pyruvate kinase/lactate dehydrogenase assay). As to conditions: Inhibition of biochemical activity of uKIT kinase; 1 mM ATP. The method, then: Biochemical Assay for uKIT
Activity of c-KIT kinase (SEQ. ID NO. 1 or SEQ. ID NO. 2) was determined spectroscopically using a coupled pyruvate kinase/lactate dehydrogenase assay that continuously monitors the ATP hydrolysis-dependent oxidation of NADH (e.g., Schindler et al. Science (2000) 289: 1938-1942). Assays were conducted in 384-well plates (100 μL final volume) using 16 nM (Decode, SEQ ID No. 1) or 4.36 nM (Signal Chem, SEQ. ID No. 2), 0.7 mg/mL PE4Y substrate, 1.5 units pyruvate kinase, 2.1 units lactate dehydrogenase, 1 mM phosphoenol pyruvate, 0.28 mM NADH and 1 mM ATP in assay buffer (100 mM Tris, pH 7.5, 15 mM MgCl2, 0.5 mM DTT, 0.1% octyl-glucoside, 0.002% (w/v) BSA, and 0.002% Triton X-100). Inhibition of KIT was measured by adding serial diluted test compound (final assay concentration of 1% DMSO). A decrease in absorption at 340 nm was monitored continuously for 6 h at 30° C. on a multi-mode microplate reader (BioTek). The reaction rate was calculated using the 2-3 h time frame. The reaction rate at each concentration of compound was converted to percent inhibition using controls (i.e., reaction with no test compound and reaction with a known inhibitor) and IC50 values were calculated using software routines in Prism (GraphPad software).

Another assay relates to GIST 430 cells. The experiment in a line: GIST 430 Cell Proliferation Assay (resazurin). Format: cell-based. Conditions: Homo sapiens; GIST430 cell proliferation. The method, then:
GIST 430 Cell Proliferation Assay
(§1) A serial dilution of test compound was dispensed into a 96-well black clear bottom plate (Corning, Corning, NY). Five thousand cells were added per well in 200 μL complete growth medium. Plates were incubated for 115 h at 37 degrees Celsius, 5% CO2, 95% humidity. At the end of the incubation period 40 μL of a 440 μM solution of resazurin (Sigma, St. Louis, MO) in PBS was added to each well and incubated for an additional 5 h at 37 degrees Celsius, 5% CO2, 95% humidity. Plates were read on a Synergy2 reader (Biotek, Winooski, VT) using an excitation of 540 nm and an emission of 600 nm. Data was analyzed using Prism software (Graphpad, San Diego, CA) to calculate IC50 values.

The next assay concerns Ba/F3 KIT mutant cells. The assay can be described thus: Ba/F3 mutant KIT Cell Proliferation Assays (resazurin). Format: cell-based. Conditions: Mus musculus, BaF3. The method, then:
Ba/F3 KIT Mutant Cell Line Transduction and Expansion
Several different KIT cDNA encoding various primary and secondary mutations were cloned into a pLV(Exp]-CMV>(cDNA):IRES:puro vector. These vectors were constructed and packaged by VectorBuilder.
Exponentially grown Ba/F3 cells (1×10^6 cells in 1 ml medium) were infected with 60 μl of viral suspension in a 6-well plate in the presence of mIL-3 (10 ng/ml) and polybrene (7.5 μg/ml) (Vector Builder) and incubated for 16 h. After 16 h, the cells were centrifuged, and viral supernatant was discarded. The cells were then re-suspended in fresh medium and allowed to recover for another day. After 72 h post infection, the cells were seeded with complete medium with mIL-3 and with 1 μg/ml puromycin added to medium for selection. After 48 h, cells without viral infection die, whereas successfully transduced cells were collected and changed to fresh medium with 5 ng/ml of IL-3. After a week or two with gradual withdrawal of mIL3 the cells that can continue to proliferate in the absence of mIL3 were exponentially expanded and were frozen down for banking.
Ba/F3 mutant KIT Cell Proliferation Assays
as §1, with “a 384-well” for “a 96-well”, “NY). Six hundred and twenty-five” for “NY). Five thousand”, “in 50” for “in 200”, “for 68” for “for 115”, “at 37° C.,” for “at 37 degrees Celsius,”, “period 10” for “period 40”

Where [1] appears, read: Ba/F3 KIT AYdup-V654A mutant cell proliferation, read-out: AYdup-V654A IC50.
The mark [2] stands for this setting: Ba/F3 KIT exon11del-V654A mutant cell proliferation, read-out: exon11del-V654A IC50.
[3] abbreviates: Ba/F3 KIT exon11del-Y823D mutant cell proliferation, read-out: exon11del-Y823D IC50.
Where [4] appears, read: Ba/F3 KIT AYdup-D816G mutant cell proliferation, read-out: AYdup-D816G IC50.
Setting [5] is: Ba/F3 KIT AYdup mutant cell proliferation, read-out: AYdup IC50.

Sequence of c-KIT kinase (uKIT) (P10721 other isoform, or with tags, fused parts or gaps): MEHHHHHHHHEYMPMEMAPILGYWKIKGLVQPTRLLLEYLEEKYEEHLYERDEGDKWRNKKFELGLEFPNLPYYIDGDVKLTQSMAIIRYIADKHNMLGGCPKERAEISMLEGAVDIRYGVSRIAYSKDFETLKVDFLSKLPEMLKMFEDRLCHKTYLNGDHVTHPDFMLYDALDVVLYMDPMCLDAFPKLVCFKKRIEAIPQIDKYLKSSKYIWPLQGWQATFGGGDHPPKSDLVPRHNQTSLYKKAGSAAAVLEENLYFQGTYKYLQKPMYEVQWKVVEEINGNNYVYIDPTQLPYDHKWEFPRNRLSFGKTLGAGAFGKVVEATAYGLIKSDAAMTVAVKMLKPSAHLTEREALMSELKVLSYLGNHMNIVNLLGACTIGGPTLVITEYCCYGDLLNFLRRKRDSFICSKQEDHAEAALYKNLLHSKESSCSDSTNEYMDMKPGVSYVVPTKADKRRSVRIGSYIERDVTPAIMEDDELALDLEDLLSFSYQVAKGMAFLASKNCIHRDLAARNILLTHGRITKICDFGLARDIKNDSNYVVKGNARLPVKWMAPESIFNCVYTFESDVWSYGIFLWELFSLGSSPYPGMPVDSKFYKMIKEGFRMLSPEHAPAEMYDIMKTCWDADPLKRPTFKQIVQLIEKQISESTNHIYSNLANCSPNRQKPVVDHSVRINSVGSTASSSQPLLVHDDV

As to `COCCOc1cc(F)c2c(Nc3ccc(NC(=O)CC(=O)NCCC(C)(C)OC)cc3)ncnc2c1` [Example 107], the pIC50 at c-KIT kinase (uKIT) was 7.00 to 8.00; in the assay on GIST 430 cells it was 6.00 to 7.00; with Ba/F3 KIT mutant cells (setting [1]), 6.00 to 7.00; with Ba/F3 KIT mutant cells (setting [2]) it was 7.00 to 8.00; with Ba/F3 KIT mutant cells (setting [3]), less than 6.00.
On to `COCCOc1cc(F)c2c(Nc3ccc(NC(=O)CC(=O)N4CCC(C(F)(F)F)C4)cc3)ncnc2c1` (centres unmarked) [Example 153], for which the pIC50 against c-KIT kinase (uKIT) is 7.00 to 8.00; in the assay with GIST 430 cells, 7.00 to 8.00; with Ba/F3 KIT mutant cells (setting [1]) it was 7.00 to 8.00; in the assay with Ba/F3 KIT mutant cells (setting [2]), 6.00 to 7.00; with Ba/F3 KIT mutant cells (setting [3]), 6.00 to 7.00.
Turning to `CN(C)C(=O)COc1cc(F)c2c(Nc3ccc(NC(=O)NCCC(C)(C)F)cc3)ncnc2c1` [Example 148], the pIC50 on c-KIT kinase (uKIT) is 7.00 to 8.00; with GIST 430 cells, 6.00 to 7.00; in the assay on Ba/F3 KIT mutant cells (setting [1]), 6.00 to 7.00; with Ba/F3 KIT mutant cells (setting [2]), 7.00 to 8.00.
In the case of `COCCOc1cc(F)c2c(Nc3ccc(NC(=O)CCC4CCN(C)CC4)cc3)ncnc2c1` [Example 62], the pIC50 on c-KIT kinase (uKIT) is less than 6.00; in the assay on GIST 430 cells it was less than 6.00; in the assay on Ba/F3 KIT mutant cells (setting [1]), 6.00 to 7.00; in the assay on Ba/F3 KIT mutant cells (setting [2]), 6.00 to 7.00.
`COCCOc1cc(F)c2c(Nc3ccc(NC(=O)CC(=O)NCCC(C)C)cc3)ncnc2c1` [Example 100]: the pIC50 against c-KIT kinase (uKIT) was 7.00 to 8.00; with GIST 430 cells, 7.00 to 8.00; in the assay on Ba/F3 KIT mutant cells (setting [1]), 7.00 to 8.00; in the assay with Ba/F3 KIT mutant cells (setting [2]), 7.00 to 8.00; in the assay with Ba/F3 KIT mutant cells (setting [3]) it was 6.00 to 7.00.
`CC(C)(F)CCNC(=O)Nc1ccc(Nc2ncnc3cc(OCC4CCOCC4)cc(F)c23)cc1` [Example 123]: the pIC50 is no less than 8.00 against c-KIT kinase (uKIT); 7.00 to 8.00 with GIST 430 cells; 7.00 to 8.00 in the assay on Ba/F3 KIT mutant cells (setting [1]); no less than 8.00 with Ba/F3 KIT mutant cells (setting [2]); 7.00 to 8.00 in the assay on Ba/F3 KIT mutant cells (setting [3]).
For `COCCOc1cc(F)c2c(Nc3ccc(NC(=O)CCC(C)(C)OC)cc3)ncnc2c1` [Example 28], the pIC50 on c-KIT kinase (uKIT) is 7.00 to 8.00; with GIST 430 cells, 7.00 to 8.00; with Ba/F3 KIT mutant cells (setting [4]) it was 7.00 to 8.00; with Ba/F3 KIT mutant cells (setting [1]), 7.00 to 8.00; in the assay on Ba/F3 KIT mutant cells (setting [2]), 7.00 to 8.00; in the assay on Ba/F3 KIT mutant cells (setting [3]) it was 6.00 to 7.00.
With `CC(C)(C)CNC(=O)CC(=O)Nc1ccc(Nc2ncnc3cc(OCCN4CCOCC4)cc(F)c23)cc1` [Example 145], the pIC50 on c-KIT kinase (uKIT) is 7.00 to 8.00; in the assay with GIST 430 cells, 7.00 to 8.00; in the assay with Ba/F3 KIT mutant cells (setting [5]) it was no less than 8.00; with Ba/F3 KIT mutant cells (setting [4]), 7.00 to 8.00; in the assay with Ba/F3 KIT mutant cells (setting [1]), 7.00 to 8.00; with Ba/F3 KIT mutant cells (setting [2]) it was no less than 8.00. In addition, the pIC50 with Ba/F3 KIT mutant cells (setting [3]) was 7.00 to 8.00.
For the compound `COCCOc1cc(F)c2c(Nc3ccc(NC(=O)CC(=O)N4CC[C@H](C)C4)cc3)ncnc2c1` [Example 191], the pIC50 against c-KIT kinase (uKIT) was 7.00 to 8.00; with GIST 430 cells, 6.00 to 7.00; in the assay with Ba/F3 KIT mutant cells (setting [1]) it was 6.00 to 7.00; with Ba/F3 KIT mutant cells (setting [2]), 6.00 to 7.00; in the assay with Ba/F3 KIT mutant cells (setting [3]), 6.00 to 7.00.
For the compound `COCCOc1cc(F)c2c(Nc3ccc(NC(=O)CC(=O)N4CCC4(C)C)cc3)ncnc2c1` [Example 167], the pIC50 against c-KIT kinase (uKIT) was 7.00 to 8.00; in the assay with GIST 430 cells, 7.00 to 8.00; with Ba/F3 KIT mutant cells (setting [1]), 7.00 to 8.00; in the assay on Ba/F3 KIT mutant cells (setting [2]), 6.00 to 7.00; with Ba/F3 KIT mutant cells (setting [3]), 6.00 to 7.00.
With `COC(C)(C)CCNC(=O)Nc1ccc(Nc2ncnc3cc(OCCN4CCOCC4)cc(F)c23)cc1` [Example 37], the pIC50 against c-KIT kinase (uKIT) is 7.00 to 8.00; in the assay on GIST 430 cells, no less than 8.00; with Ba/F3 KIT mutant cells (setting [5]) it was no less than 8.00; in the assay on Ba/F3 KIT mutant cells (setting [4]) it was 7.00 to 8.00; in the assay with Ba/F3 KIT mutant cells (setting [1]), 7.00 to 8.00; with Ba/F3 KIT mutant cells (setting [2]), 7.00 to 8.00. For the same compound, the pIC50 in the assay on Ba/F3 KIT mutant cells (setting [3]) was 7.00 to 8.00.
With `COCCOc1cc(F)c2c(Nc3ccc(NC(=O)CC(=O)N4CCCC4)cc3)ncnc2c1` [Example 186], the pIC50 at c-KIT kinase (uKIT) is 6.00 to 7.00; in the assay with GIST 430 cells, less than 6.00; with Ba/F3 KIT mutant cells (setting [1]), less than 6.00; in the assay on Ba/F3 KIT mutant cells (setting [2]), less than 6.00; with Ba/F3 KIT mutant cells (setting [3]), less than 6.00.
In the case of `COCCOc1cc(F)c2c(Nc3ccc(NC(=O)C(C)NC(=O)CC(C)C)cc3)ncnc2c1` (centres unmarked) [Example 55], the pIC50 is 6.00 to 7.00 at c-KIT kinase (uKIT); 6.00 to 7.00 with GIST 430 cells; 6.00 to 7.00 in the assay with Ba/F3 KIT mutant cells (setting [1]); 7.00 to 8.00 in the assay on Ba/F3 KIT mutant cells (setting [2]); 6.00 to 7.00 in the assay with Ba/F3 KIT mutant cells (setting [3]).
